In article PMC10385850, “Modified Hederagenin Derivatives Demonstrate Ex Vivo Anthelmintic Activity against Fasciola hepatica” (Pharmaceutics, 2023):
Values joined by “and” are separate entries in the source; they are usually repeats but may differ in a detail not shown here. Equal entries are not always repeated. Where two headings read alike, the source gives them in different places.

Key:
[1] = MTT cell viability assay on MDBK cells; type: cell-based, bovine; conditions: bovine, MDBK cells (Madin–Darby bovine kidney); MDBK cells, MTT, 24 h exposure; read-out: CC50 with 95% CI on MDBK cells (cytotoxicity)
Description: MTT cell viability assays were performed on Madin–Darby bovine kidney (MDBK cells) for the five selected hederagenin derivatives (MC014, MC035, MC042, MC055 and MC062) using final concentrations of 100 μM, 75 μM, 50 μM, 25 μM, 10 μM, 5 μM and 1 μM (in 1% DMSO). Negative (1% v/v Triton X-100, Sigma-Aldrich, UK) and positive (1% v/v DMSO or media only) controls were included. The protocol was followed as previously described. Absolute EC50 values were calculated from the corrected absorbance of replicates by non-linear regression, after log transformation of concentrations and data normalization (where DMSO values represents 0% inhibition and TX-100 values represent 100% inhibition) using GrapPad Prism 8.

[2] = system: F. hepatica newly excysted juveniles (NEJs), Italian strain; experiment: Ex vivo screen against newly excysted juveniles (NEJs), phenotype and motility scoring; type: cell-based, Fasciola hepatica; conditions: 10 µM; for Average motility of 25 NEJs with 95% CI, 24 hours / Average motility of 25 NEJs with 95% CI, 48 hours / Average motility of 25 NEJs with 95% CI, 72 hours: motility score 1 good/normal to 5 no movement; for Average phenotype of 25 NEJs with 95% CI, 24 hours / Average phenotype of 25 NEJs with 95% CI, 48 hours / Average phenotype of 25 NEJs with 95% CI, 72 hours: ultrastructure score 1 normal to 6 dead or dissolved; for Activity against NEJs (first screen), in words: 72 h co-culture
Method in brief: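 Newly excysted juveniles of the Italian strain of F. hepatica were obtained by excysting metacercariae and exposed ex vivo to test compounds at 10 μM final concentration in 0.1% DMSO. Controls were 0.1% DMSO (negative) and 10 μM TCBZ in 0.1% DMSO (positive). Motility was scored from 1 (good/normal) to 5 (no movement), and ultrastructural phenotype changes were scored with an established matrix.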

[3] = system: wild strain adult F. hepatica; experiment: Ex vivo motility assay on adult liver flukes (wild strain); type: cell-based, Fasciola hepatica; conditions: 40 µM; for Effect on wild strain adult fluke motility, in words: 72 h; for Average motility of 4 parasites with 95% CI at 72 hour time point: wild strain adult flukes, score 1 good/normal to 6 no movement or dead
Description: Due to the high number of active molecules and a shortage of Italian strain adult liver flukes, the eleven hit compounds were screened for 72 h at 40 µM (in 0.4% DMSO) on wild strain adult F. hepatica (n = 4/condition) of unknown provenance (Table S3). The protocol for culturing and scoring (motility) the activity of these compounds was previously described (1—good/normal; 2—moderate; 3—resting (less than 10 s pulses of body and head), 4—apathetic (less than 2 s pulses of body and head), 5—paralysis and 6–no movement or dead worms). Six compounds were deemed active in these assays and were selected for further screening.

[4] = system: adult F. hepatica flukes (Italian strain); experiment: Ex vivo dose response motility assay on adult liver flukes (Italian strain); type: cell-based, Fasciola hepatica; conditions: for Average motility of 3 parasites treated with 4.4 µM, 24 hours / Average motility of 3 parasites treated with 4.4 µM, 48 hours / Average motility of 3 parasites treated with 4.4 µM, 72 hours / Average motility of 3 parasites treated with 13.3 µM, 24 hours / Average motility of 3 parasites treated with 13.3 µM, 48 hours / Average motility of 3 parasites treated with 13.3 µM, 72 hours / Average motility of 3 parasites treated with 40 µM, 24 hours / Average motility of 3 parasites treated with 40 µM, 48 hours / Average motility of 3 parasites treated with 40 µM, 72 hours: adult flukes Italian strain, score 1 to 6; for Selectivity Index (SI) on Adult Flukes SI=CC50/EC50, 72 hour: CC50 in MDBK cells (24 h) / EC50 adult flukes 72 h; for EC50: Fasciola hepatica, adult flukes, motility; for Effect on adult fluke (Italian strain) movement, in words: dose response, MC042 statement at 40 μM after 72 h
Description: The collection, ex vivo culturing and screening of adult liver fluke (Italian strain; n = 3/condition) was previously described. Dose response assays (40 µM, 13.3 µM and 4.4 µM) were conducted for MC014, MC042, MC035, MC055 and MC062 with motility scores recorded at 24, 48 and 72 h (Table S6).

[5] = system: immature F. hepatica flukes (Italian strain); experiment: Ex vivo motility assay on immature liver flukes (Italian strain), single concentration and dose response; type: cell-based, Fasciola hepatica; conditions: for Average motility of 4 parasites with 95% CI at 24 hour time point: score 1 normal to 5 no movement or death; for Effect on immature fluke motility, in words: by 72 h
Description: The six selected compounds (at 40 µM in 0.4% DMSO) were evaluated on immature flukes (n = 4/condition) at 24, 48 and 72 h (Table S4). The protocol for culturing and scoring (motility) of these life stages have been previously described. Due to restricted numbers of immature worms, a dose response assay was conducted only for MC042. Here, immature worms (n = 2/concentration tested) were screened against descending concentrations of MC042 (40 µM, 13.3 µM and 4.4 µM); motility scores were recorded at 24, 48 and 72 h (Table S5). The scoring pattern used is identical to that described for NEJs.

[6] = 72 h, read-out: EC50 with 95% CI on Adult Flukes (motility), 72 hour
[7] = 40 µM, 48 h, immature flukes, score 1 to 5
[8] = 40 µM, 72 h, immature flukes, score 1 to 5

SMILES | CC50 at 24 h [1] [µM] | Average motility of 25 NEJs with 95% CI, 24 hours [2] | Average phenotype of 25 NEJs with 95% CI, 24 hours [2] | Average motility of 25 NEJs with 95% CI, 48 hours [2] | Average phenotype of 25 NEJs with 95% CI, 48 hours [2] | Average motility of 25 NEJs with 95% CI, 72 hours [2] | Average phenotype of 25 NEJs with 95% CI, 72 hours [2] | Activity against NEJs (first screen), in words [2] | Effect on wild strain adult fluke motility, in words [3] | Average motility of 4 parasites with 95% CI at 72 hour time point [3] | Average motility of 3 parasites treated with 4.4 µM, 24 hours ([4]; 24 h) | Average motility of 3 parasites treated with 4.4 µM, 48 hours [4] | Average motility of 3 parasites treated with 4.4 µM, 72 hours ([4]; 72 h) | Average motility of 3 parasites treated with 13.3 µM, 24 hours ([4]; 24 h) | Average motility of 3 parasites treated with 13.3 µM, 48 hours [4] | Average motility of 3 parasites treated with 13.3 µM, 72 hours ([4]; 72 h) | Average motility of 3 parasites treated with 40 µM, 24 hours ([4]; 24 h) | Average motility of 3 parasites treated with 40 µM, 48 hours [4] | Average motility of 3 parasites treated with 40 µM, 72 hours ([4]; 72 h) | Selectivity Index (SI) on Adult Flukes SI=CC50/EC50, 72 hour [4] | further results
CC1(C)CC[C@]2(NC(=O)N3CCOCC3)CC[C@]3(C)C(=CCC4[C@@]5(C)CC[C@@H]6OC(C)(C)OC[C@@]6(C)C5CC[C@]43C)C2C1 (stereo partly drawn) [MC042, N-((4aR,6aR,6bS,8aS,14bR,16aS)-2,2,4a,6a,6b,11,11,14b-Octamethyl-4a,5,6,6a,6b,7,8,9,10,11,12,12a, 14,14a,14b,15,16,16a-octadecahydro-4H-piceno[3,4-d][1,3]dioxin-8a(4bH)-yl)-morpholine-4-carboxamide] | 47.5 | 5.00 (5.0;5.0) | 6.00 (6.0;6.0) | 5.00 (5.0;5.0) | 6.00 (6.0;6.0) | 5.00 (5.0;5.0) | 6.00 (6.0;6.0) | maximal alterations to both phenotype/ultrastructure and motility | no motility after 72 h | 6.00 (6.0;6.0) | 1.00 (1.0;1.0) | 2.00 (2.0; 2.0) | 3.00 (3.0; 3.0) | 3.66 (3.0;4.3) | 4.00(4.0; 4.0) | 4.00 (4.0; 4.0) | 5.33 (4.6;5.9) | 5.66 (5.0;6.3) | 5.66 (5.0,6.3) | 6.64 | Effect on adult fluke (Italian strain) movement at lower concentrations, in words ([4]; 13.3 μM and 4.4 μM, after 72 h, compared to DMSO 0.4%): impaired movement; Selectivity Index (SI) on Adult Flukes SI=CC50/EC50, 24 hour ([4]; CC50 in MDBK cells / EC50 adult flukes, 24 h): 4 and 3.64; EC50 ([4]; 24 h exposure, read-out: EC50 with 95% CI on Adult Flukes (motility), 24 hour): 13 µM; EC50 [4, 6]: 7.15 µM; Effect on adult fluke (Italian strain) movement, in words [4]: two out of three adult flukes were completely immobilized; Average motility of 2 parasites treated with 4.4 µM, 24 hours ([5]; 4.4 µM, 24 h, immature flukes, dose response, score 1 to 5): 4.00 (4.0;4.0); Average motility of 2 parasites treated with 4.4 µM, 48 hours ([5]; 4.4 µM, 48 h, immature flukes, dose response, score 1 to 5): 5.00 (5.0; 5.0); Average motility of 2 parasites treated with 4.4 µM, 72 hours ([5]; 4.4 µM, 72 h, immature flukes, dose response, score 1 to 5): 5.00 (5.0; 5.0); Average motility of 2 parasites treated with 13.3 µM, 24 hours ([5]; 13.3 µM, 24 h, immature flukes, dose response, score 1 to 5): 4.00 (4.0;4.0); Average motility of 2 parasites treated with 13.3 µM, 48 hours ([5]; 13.3 µM, 48 h, immature flukes, dose response, score 1 to 5): 5.00 (5.0; 5.0); Average motility of 2 parasites treated with 13.3 µM, 72 hours ([5]; 13.3 µM, 72 h, immature flukes, dose response, score 1 to 5): 5.00 (5.0; 5.0); Average motility of 2 parasites treated with 40 µM, 24 hours ([5]; 40 µM, 24 h, immature flukes, dose response, score 1 to 5): 5.00 (5.0;5.0); Average motility of 4 parasites with 95% CI at 24 hour time point ([5]; 40 µM, 24 h, immature flukes): 4.75 (4.2;5.2); Average motility of 2 parasites treated with 40 µM, 48 hours ([5]; 40 µM, 48 h, immature flukes, dose response, score 1 to 5): 5.00 (5.0;5.0); Average motility of 4 parasites with 95% CI at 48 hour time point [5, 7]: 5.00 (5.0;5.0); Average motility of 2 parasites treated with 40 µM, 72 hours ([5]; 40 µM, 72 h, immature flukes, dose response, score 1 to 5): 5.00 (5.0,5.0); Average motility of 4 parasites with 95% CI at 72 hour time point [5, 8]: 5.00 (5.0;5.0); Effect on immature fluke motility, in words ([5]; 40 µM): paralyzed the assayed immature flukes; Selectivity Index (SI) on Immature Flukes SI=CC50/EC50, 24 hour ([5]; CC50 in MDBK cells / EC50 immature flukes, 24 h): 44 and 44.37; EC50 ([5]; Fasciola hepatica, immature flukes, motility, 24 h exposure, read-out: EC50 with 95% CI on Immature Flukes (motility), 24 hour): 1.07 µM
CC1(C)CC[C@]2(NC(=O)N3CCCC3)CC[C@]3(C)C(=CCC4[C@@]5(C)CC[C@H](O)[C@@](C)(CO)C5CC[C@]43C)C2C1 (stereo partly drawn) [MC055, N-((4aS,6aS,6bR,9R,10S,12aR)-10-Hydroxy-9-(hydroxymethyl)-2,2,6a,6b,9,12a-hexamethyl-1,3,4,5,6,6a,6b,7,8,8a,9,10,11,12,12a,12b,13,14b-octadecahydropicen-4a(2H)-yl)pyrrol-idine-1-carboxamide] | 34.7 | 5.00 (5.0;5.0) | 6.00 (6.0;6.0) | 5.00 (5.0;5.0) | 6.00 (6.0;6.0) | 5.00 (5.0;5.0) | 6.00 (6.0;6.0) | maximal alterations to both phenotype/ultrastructure and motility | partial paralysis | 5.25 (4.7;5.7) | 1.00 (1.0;1.0) | 1.00 (1.0;1.0) | 3.00 (3.0;3.0) | 1.00 (1.0;1.0) | 1.00 (1.0;1.0) | 4.66 (3.3;5.9) | 3.00 (3.0;3.0) | 3.66 (3.0;4.3) | 5.00 (5.0;5.0) | 5.72 | EC50 [4, 6]: 6.06 µM; Effect on adult fluke (Italian strain) movement, in words [4]: Decreased movement; Average motility of 4 parasites with 95% CI at 24 hour time point ([5]; 40 µM, 24 h, immature flukes): 2.75 (1.8;3.6); Average motility of 4 parasites with 95% CI at 48 hour time point [5, 7]: 5.00 (5.0;5.0); Average motility of 4 parasites with 95% CI at 72 hour time point [5, 8]: 5.00 (5.0;5.0); Effect on immature fluke motility, in words ([5]; 40 µM): paralyzed the assayed immature flukes
